One may read the melting point as the temperature of the solid-liquid transition.

109 compounds from a melting point compilation (Tetko et al.) can be followed below.

In the case of `O=C1c2cccc([N+](=O)[O-])c2C(=O)c2cccc([N+](=O)[O-])c21`, the melting point is 385 °C.
As for `O=C(NCCc1cc([N+](=O)[O-])c(CCNC(=O)c2ccccc2)c([N+](=O)[O-])c1)c1ccccc1`, the melting point was 217 °C.
For `COC(=O)C1CC(=O)c2ccccc21` (centres undefined) the value was 45 °C; for `c1ccc2c(C3CCNCC3)c[nH]c2c1`, 222 to 223 °C.
For `O=Cc1ccc(Br)c(Br)c1` the value was 71 °C.
The compound `COc1cc(Br)cc(Br)c1` yielded a melting point of 41.5 °C.
On to `Cc1ccc2nc(C)c(C)nc2c1`, for which the melting point stood at 93 °C.
The compound `CC(=O)OC[C@H]1O[C@@H](OC(C)=O)[C@H](NC(=O)OCc2ccccc2)[C@@H](OC(C)=O)[C@@H]1OC(C)=O` had a melting point of 150 °C.
`COc1cc(C(=O)O)ccc1F` gave a melting point of 207 °C.
The value for `Cc1csc(N)c1-c1nc2ccccc2s1` was 111 to 112 °C; that for `CC(=O)C=Cc1ccco1` was 39.5 °C; that for `O=c1[nH]c2ccccc2n1C1CCN(CCCC(c2ccc(F)cc2)c2ccc(F)cc2)CC1` was 216 °C.
For `CC(=O)Oc1c[nH]c2ccccc12` the value was 129 °C.
Consider `CSc1nc2ccccc2s1`, for which the melting point stood at 44 °C.
The value for `Brc1ccc2c(c1)Oc1cc(Br)ccc1O2` was 145 °C; that for `CN(C)CCc1c[nH]c2ccc(Cn3cncn3)cc12` was 179 °C; that for `COc1ccccc1/N=N/c1c(N)nn2c(C(F)(F)F)cc(=O)[nH]c12` was 295 °C.
The value for `CC(=O)N[C@@H](C)C(=O)N[C@@H](C)C(=O)N[C@@H](C)C(=O)O` was 248 °C.
For `O=C(O)C=Cc1ccccc1C(=O)O`, the melting point is 197 to 202 °C.
The value for `CC1CCC(C)(COC(=O)c2ccc([N+](=O)[O-])cc2)C1(C)C` (centres undefined) was 95 °C; that for `O=C(O)c1csc(-c2ccc3c(c2)CCO3)n1` was 210 to 214 °C.
The value for `CC(N)C(O)c1cccc(O)c1` (centres undefined) was 108 °C; that for `CN(C)S(=O)(=O)Oc1ccc(C#N)cc1` was 70 to 73 °C.
For `NNC(=O)c1ccc(Cl)cc1` the value was 164 °C.
The compound `Oc1ccc(F)nc1` displayed a melting point of 152 °C.
In turn, `CCCCCCCCCCCCCCCCCl` registered a melting point of 17.9 °C.
For `Oc1ccc(O)c(Br)c1` the value was 112 °C; for `CCOc1ccc(Cc2nc(C)cc3cc(OC)c(OC)cc23)cc1OC`, 124 °C.
The value for `CC1CCC(C)(CO)C1(C)C` (centres undefined) was 94 °C; that for `Nc1ccc(-n2cccc2)cc1` was 81 °C.
The value for `Cc1cc(Br)c(O)c2c1CCC2` was 60 to 62 °C; that for `COC(=O)c1sc(SC)c(S(=O)(=O)C(C)C)c1N` was 151 to 155 °C; that for `CCOC(=O)Nc1ccc2nn(C3CCCC3)nc2c1` was 122 °C.
`Clc1ncc(Br)c(Cl)n1` registered a melting point of 30 °C.
The value for `C#CC1(OC(C)=O)CCC2C3CCC4=CC(=NO)CCC4C3CCC21CC` (centres undefined) was 216 °C; that for `CCOC(=O)c1cc(-c2ccco2)[nH]n1` was 137 to 138 °C; that for `CCS(=O)(=O)c1nnc(N(C)C(=O)NC)s1` was 156 °C.
For `O=[N+]([O-])c1ccc(N/N=C2\C=C(c3ccccc3)c3ccccc32)cc1` the value was 265 to 266 °C; for `COc1ccc2nc(Cl)c(CO)cc2c1`, 133 °C; for `CCOC(=O)c1c(SC)nn(C(=O)Cc2ccccc2)c1N`, 120 °C.
The value for `Nc1cc(-c2ccc(Cl)cc2)n[nH]1` was 174 to 176 °C; that for `CC(=CCNc1ncnc2nc[nH]c12)CO` was 208 °C.
In turn, `O=S1(=O)OCCO1` had a melting point of 99 °C.
Regarding `C#CCCCCCCCC#C`, the melting point is -17 °C.
The value for `CC1=NNC(=O)C1=Cc1c(O)c2cccc(C)c2[nH]c1=O` was 242 °C; that for `CC(=O)Oc1ccccc1C(=O)O` was 142 °C; that for `N=C(N)NCC1COc2ccccc2O1` (centres undefined) was 164 °C.
For `Cc1nn(-c2ccccc2)c2oc3ncccc3c(=O)c12` the value was 223 to 224 °C.
The value for `COc1ccccc1NC(=S)c1cc(C(C)(C)C)c(O)c(C(C)(C)C)c1` was 185 to 186 °C; that for `CCSC1=NN=C(SCC)NN1` was 123 to 125 °C.
The compound `O=C(O)c1cccc(N2CCCCC2)n1` came in with a melting point of 98 to 101 °C.
As to `CCCCCCCCCCCCCCCCCCCCCCCCCCCCCC(=O)O`, the melting point was 93.6 °C.
`COc1ccc(C2C(=O)c3ccccc3C2=O)cc1` registered a melting point of 156 °C.
For the compound `O=C(NCN(CNC(=O)c1ccccc1)N(CNC(=O)c1ccccc1)CNC(=O)c1ccccc1)c1ccccc1`, the melting point is 99 to 101 °C.
The compound `N=c1oc2ccccc2cc1-c1nc2ccccc2c(=O)[nH]1` yielded a melting point of 275 °C.
In turn, `Fc1nccc(Br)c1Br` registered a melting point of 76 °C.
The value for `CCC#CCC` was -103 °C; that for `CC1(C)CCC2(C)CCC3(C)C(=CCC4C5(C)CCC(O)C(C)(C)C5CCC43C)C2C1` (centres undefined) was 197 °C.
In turn, `CCc1ccc(C(c2ccc(CC)o2)c2cc3c(cc2[N+](=O)[O-])OCCO3)o1` yielded a melting point of 86 °C.
Compound `Cc1oc(-c2ccccc2)cc1-c1ccccc1` registered a melting point of 44 °C.
The value for `CCCCCC1CCCC1` was -83 °C; that for `C/C(=N/NC(N)=S)C(=O)Nc1ccc(Br)cc1` was 228 to 230 °C; that for `CCOC(=O)C(C#N)=NO` was 130 °C.
For `COC(=O)C(=Cc1ccc(O)cc1)C(=O)OC` the value was 155 to 160 °C; for `CN1CCOc2cc(S(=O)(=O)Cl)ccc21`, 66 to 68 °C; for `CCc1nc(N)nc(O)c1C`, 303 to 304 °C.
For `O=C(c1c[nH]c2ccccc12)C(F)(F)F` the value was 211 to 214 °C; for `O=C1C(Cl)=C(Nc2ccccc2)C(=O)c2ccccc21`, 215 °C; for `O=C(O)Cc1ccccc1C(F)(F)F`, 100 to 102 °C.
Turning to `CC(C)COC(=O)C(C)Oc1ccc(Oc2ccc(Cl)cc2)cc1` (centres undefined), the melting point is 39.5 °C.
For `C/C(=N\NC(=O)c1ccccn1)c1c(O)c2ccccc2n(-c2ccccc2)c1=O` the value was 288 to 290 °C; for `CCCCCCCCCC1CCCC1`, -29 °C; for `CCCCCCCCCCCCCCCCCC1CCCCC1`, 38 °C.
The value for `CC(/N=N/c1cc(Cl)cc(Cl)c1O)=C(/C(=O)N1CCOCC1)N1CCOCC1` was 76.5 °C; that for `Cc1ccccc1/C=C(/C#N)c1nc2ccccc2c(=O)[nH]1` was 258 °C.
As to `CCOC(=O)CN(C(=O)CCl)c1c(CC)cccc1CC`, the melting point came out at 50 °C.
As to `c1ccc(Nc2nc3ccccc3[nH]2)nc1`, the melting point is 257 to 259 °C.
The value for `Cc1cccc(N(C)C(=S)Oc2ccc3c(c2)CCC3)c1` was 94 °C; that for `NC(=O)CS(=O)(=O)c1ccccc1` was 156 °C.
For `FC(F)(F)C(F)(F)C(F)(F)C(F)(F)C(F)(F)C(F)(F)C(F)(F)C(F)(F)C(F)(F)C(F)(F)CCI` the value was 82 to 83 °C; for `C=CCOC(=O)CCC`, -80 °C.
For `c1cc(-c2n[nH]c(-c3ccncc3)n2)ccn1` the value was 242 °C; for `Cc1cc(OCc2ccccc2)ccc1[N+](=O)[O-]`, 70 °C.
As to `N=C(N)N1CCc2ccccc2C1`, the melting point came out at 279 °C.
As for `Oc1ccc(F)cc1Cl`, the melting point came out at 23 °C.
For the compound `O=S(=O)(c1ccc(Cl)cc1)N(C1CCNCC1)C1CC1`, the melting point was 111 to 114 °C.
For `O=Cc1ccc(-c2ccccn2)cc1` the value was 51 to 53 °C; for `CCCn1cnc2c1c(=O)n(CCCCC(C)=O)c(=O)n2C`, 69 °C.
The value for `CCOC(=O)C(ON=C(c1cc2ccccc2o1)c1cc2ccccc2o1)C(=O)OCC` was 137 to 138 °C.
Compound `CN1CCN(CCCN2c3ccccc3Sc3ccc(C(F)(F)F)cc32)CC1` displayed a melting point of 25 °C.
The value for `CCOC(OCC)c1cccc2c(Br)ccc([N+](=O)[O-])c12` was 95 °C.
Take `C/C(=N\N=C1C(=O)Nc2ccccc21)c1c(O)c2ccccc2n(-c2ccccc2)c1=O`: the melting point was found to be 267 °C.
`CC(=O)c1cc(C)ccc1C` displayed a melting point of -18.1 °C.
The value for `CCCNC(=O)NCCC` was 105 °C; that for `CCCCCCCCCCCC(CCCCCCCC)c1ccccc1` (centres undefined) was 17.9 °C.
For `C=CCCCCCCCCC(=O)OC` the value was -27.5 °C.
The value for `CC(C)n1c(O)nnc1S` was 167 to 170 °C; that for `O=S(=O)(c1ccc(Cl)cc1)c1cc(Cl)c(Cl)cc1Cl` was 147 °C; that for `COc1ccccc1C(=S)N1CCCCC1` was 85 °C.
The compound `Cc1nc(C(N)=S)cs1` came in with a melting point of 201 to 203 °C.
Consider `CCCCCCN(CCCCCC)C(=O)COC(=O)c1ccccc1`, for which the melting point was 162 °C.
For `Cc1ccc(C(=O)/C=C/c2ccc(-c3cccc([N+](=O)[O-])c3)o2)o1` the value was 160 °C.
For `O=C(O)c1cnon1` the value was 102 to 104 °C.
The value for `Nn1c(S)nnc1-c1ccc(Cl)cc1` was 320 °C; that for `C(=N\CC/N=C/c1ccc2c(c1)OCO2)/c1ccc2c(c1)OCO2` was 178 °C; that for `CC(=O)N1CCN(c2ccc(O)cc2)CC1` was 183 °C.
With `O=C(O)c1cncc(-c2ccccc2)c1`, the melting point amounted to 260 °C.
`C[C@H](N)C(=O)O` registered a melting point of 314 to 316 °C.
For `O=C1C=CC(=O)[C@@H]2CC3=C(CC4=C(C3)C[C@H]3C(=O)C=CC(=O)[C@H]3C4)C[C@H]12` the value was 335 to 340 °C.
